Measurements taken from patent US10322118B2, “Compounds and methods for inhibiting Cif virulence factor” (priority 2012, dated 2019).
Counter-ions that a name gives are not always drawn.

Columns and labels:
Cif [1] = target: T1, Cif (Pseudomonas aeruginosa (strain UCBPP-PA14), UniProt A0A0H2ZD27); assay: Secondary screen (sextuplicate) with fluorogenic substrate CMNGC; assay type: biochemical; conditions: for % Inhibition, Mean ± SD / % Inhibition, plate 1 / % Inhibition, plate 2 / % Inhibition, plate 3 / % Inhibition, plate 4 / % Inhibition, plate 5 / % Inhibition, plate 6: secondary screen, 10 μM; for % Inhibition, Mean ± SD: mean of six plates; for % Inhibition, plate 1: plate number 1; for % Inhibition, plate 2: plate number 2; for % Inhibition, plate 3: plate number 3; for % Inhibition, plate 4: plate number 4; for % Inhibition, plate 5: plate number 5; for % Inhibition, plate 6: plate number 6;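 for all read-outs here: purified enzyme assay in 96-well plates, 200 µL volume, fluorescence recorded each minute across a 60 min reaction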
T1 sequence (A0A0H2ZD27 25-319 limits assumed): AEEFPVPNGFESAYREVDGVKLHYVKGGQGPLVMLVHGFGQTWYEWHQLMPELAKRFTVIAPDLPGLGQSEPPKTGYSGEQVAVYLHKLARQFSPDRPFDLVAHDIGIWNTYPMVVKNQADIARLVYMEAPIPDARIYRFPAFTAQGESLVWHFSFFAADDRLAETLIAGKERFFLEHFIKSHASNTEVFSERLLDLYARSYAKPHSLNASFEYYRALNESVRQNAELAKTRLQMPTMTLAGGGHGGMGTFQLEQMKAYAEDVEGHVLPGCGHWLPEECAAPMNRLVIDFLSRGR

Cif [2] = target: T1, Cif; assay: Primary high throughput screen with fluorogenic substrate CMNGC; assay type: biochemical; conditions: primary screen; test compounds at 10 μM, 1 μM Cif, 25 μM CMNGC, 60 minutes;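 note: fluorescence of 200 µL reactions in 96-well plates read on a plate reader, inhibitor at tenfold molar excess over Cif enzyme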
[3] = read-out: % Inhibition, Mean ± SD
[4] = read-out: % Inhibition, plate 1
[5] = read-out: % Inhibition, plate 2
[6] = read-out: % Inhibition, plate 3
[7] = read-out: % Inhibition, plate 4
[8] = read-out: % Inhibition, plate 5
[9] = read-out: % Inhibition, plate 6

Row | Molecule | inhibition at 10 µM (Cif [1]; [3]) | inhibition at 10 µM (Cif [1]; [4]) | inhibition at 10 µM (Cif [1]; [5]) | inhibition at 10 µM (Cif [1]; [6]) | inhibition at 10 µM (Cif [1]; [7]) | inhibition at 10 µM (Cif [1]; [8]) | inhibition at 10 µM (Cif [1]; [9]) | inhibition at 10 µM (Cif [2]) | % Inhibition, Mean ± SD (Cif [1]) | % Inhibition, plate 1 (Cif [1]) | % Inhibition, plate 2 (Cif [1]) | % Inhibition, plate 3 (Cif [1]) | % Inhibition, plate 4 (Cif [1]) | % Inhibition, plate 5 (Cif [1]) | % Inhibition, plate 6 (Cif [1]) | % Inhibition (Cif [2])
1 | CC(C(=O)O)c1cccc(C(=O)c2ccccc2)c1 (centres unmarked) [Ketoprofen] | 9 ± 5% | 2% | 14% | 9% | 8% | 15% | 4% | 34% |  |  |  |  |  |  |  | 
2 | CC(=O)[C@@]1(O)CC[C@H]2[C@@H]3C[C@H](C)C4=CC(=O)C=C[C@]4(C)[C@@]3(F)[C@@H](O)C[C@@]21C [Fluorometholone] | 18 ± 2% | 18% | 15% | 19% | 16% | 21% | 16% | 31% |  |  |  |  |  |  |  | 
3 | Nc1nc2c(ncn2CCC(CO)CO)c(=O)[nH]1 [Penciclovir] | 0% | -11% | 1% | 2% | 3% | 7% | -3% | 45% |  |  |  |  |  |  |  | 
4 | Nc1ccc(S(=O)(=O)Nc2ncccn2)cc1 [Sulfadiazine] | 23 ± 4% | 23% | 24% | 24% | 26% | 28% | 15% | 42% |  |  |  |  |  |  |  | 
5 | C[C@]12CC[C@@H]3c4ccc(O)cc4CC[C@H]3[C@@H]1CC[C@@H]2O [Estradiol] | 4 ± 5% | 4% | 5% | 5% | 6% | 8% | -6% | 39% |  |  |  |  |  |  |  | 
6 | CC1=NN(c2ccccc2)C(=O)C1 [Edaravone] | 16 ± 7% | 21% | 13% | 13% | 26% | 19% | 6% | 43% |  |  |  |  |  |  |  | 
7 | Candicidin |  |  |  |  |  |  |  |  | 15 ± 7% | 3% | 13% | 17% | 19% | 23% | 18% | 41%
8 | N#C[C@@H]1C[C@@H]2C[C@@H]2N1C(=O)[C@@H](N)C12CC3CC(CC(O)(C3)C1)C2 [Saxagliptin] | 5 ± 4% | 5% | 0% | 6% | 6% | 11% | 3% | 35% |  |  |  |  |  |  |  | 
9 | C=CCc1ccc(O)c(OC)c1 [Eugenol] | 3 ± 4% | 4% | 0% | 7% | 4% | 6% | -4% | 32% |  |  |  |  |  |  |  | 
10 | NC[C@H]1O[C@H](O[C@H]2[C@H](O)[C@@H](O[C@H]3O[C@H](CO)[C@@H](O)[C@H](N)[C@H]3O)[C@H](N)C[C@@H]2N)[C@H](N)C[C@@H]1O [Tobramycin] | -8 ± 7% | -5% | -7% | -5% | -12% | 0% | -21% | 40% |  |  |  |  |  |  |  | 
11 | S=c1nc[nH]c2nc[nH]c12 [Mercaptopurine] | 13 ± 5% | 5% | 15% | 19% | 15% | 15% | 11% | 32% |  |  |  |  |  |  |  | 
12 | Cc1c(Nc2ncccc2C(=O)O)cccc1C(F)(F)F [Flunixin meglumine] | 14 ± 5% | 13% | 15% | 14% | 18% | 19% | 4% | 32% |  |  |  |  |  |  |  | 
13 | CCCCCCCCCCCCCCCCOP(=O)([O-])OCC[N+](C)(C)C [Miltefosine] | 8 ± 4% | 4% | 3% | 11% | 10% | 11% | 11% | 34% |  |  |  |  |  |  |  | 
14 | CC(C)Cc1ccc(C(C)C(=O)O)cc1 (centres unmarked) [Ibuprofen] | 7 ± 5% | 1% | 6% | 5% | 8% | 15% | 7% | 48% |  |  |  |  |  |  |  | 
15 | CC(O)CN1CCN(CC(=O)[O-])CCN(CC(=O)[O-])CCN(CC(=O)[O-])CC1.[Gd+3] (centres unmarked) [Gadoteridol] |  |  |  |  |  |  |  |  | 11 ± 5% | 7% | 3% | 10% | 13% | 16% | 15% | 34%
16 | O=C1CC2(CCCC2)CC(=O)N1CCCCN1CCN(c2ncccn2)CC1 [Buspirone hydrochloride] | -3 ± 4% | 0% | -3% | 0% | -1% | -2% | -11% | 33% |  |  |  |  |  |  |  | 
17 | O=C(CCCN1CCN(c2ccccn2)CC1)c1ccc(F)cc1 [Azaperone] |  |  |  |  |  |  |  | 79% |  |  |  |  |  |  |  | 
18 | CN(C)CCCN1c2ccccc2Sc2ccc(C(F)(F)F)cc21 [Triflupromazine hydrochloride] | 2 ± 6% | 4% | 10% | -2% | 1% | 8% | -6% | 33% |  |  |  |  |  |  |  | 
19 | C[C@]12CCC(=O)C=C1C=C[C@@H]1[C@@H]2CC[C@@]2(C)[C@H]1CC[C@@]21CCC(=O)O1 [Canrenone] | 24 ± 5% | 16% | 27% | 20% | 24% | 28% | 27% | 36% |  |  |  |  |  |  |  | 
20 | CN(C)CCOc1ccc(/C(=C(/CCCl)c2ccccc2)c2ccccc2)cc1 [Toremiphene citrate] | 10 ± 4% | 3% | 7% | 13% | 12% | 15% | 11% | 31% |  |  |  |  |  |  |  | 
21 | Nc1nc(Cl)nc2c1ncn2[C@@H]1O[C@H](CO)[C@@H](O)[C@@H]1F [Clofarabine] | 12 ± 5% | 7% | 8% | 7% | 13% | 20% | 16% | 43% |  |  |  |  |  |  |  | 
22 | CN1CCCC(n2nc(Cc3ccc(Cl)cc3)c3ccccc3c2=O)CC1 (centres unmarked) [Azelastine hydrochloride] | 34 ± 4% | 30% | 31% | 33% | 34% | 42% | 30% | 48% |  |  |  |  |  |  |  | 
23 | CO[C@@]1(NC(=O)Cc2cccs2)C(=O)N2C(C(=O)O)=C(COC(N)=O)CS[C@@H]21 [Cefoxitin sodium] | 10 ± 8% | -3% | 16% | 5% | 9% | 19% | 14% | 32% |  |  |  |  |  |  |  | 
24 | C[C@]12CC[C@H]3C(=CCc4cc(O)ccc43)[C@@H]1CCC2=O [Equilin] |  |  |  |  |  |  |  | 71% |  |  |  |  |  |  |  | 
25 | COC(=O)/C=C/C(=O)OC [Dimethyl fumarate] | 5 ± 4% | 3% | -2% | 8% | 7% | 9% | 6% | 36% |  |  |  |  |  |  |  | 
26 | CC(=O)[C@H]1CC[C@H]2[C@@H]3CC=C4C[C@@H](OC(=O)CCC(=O)O)CC[C@]4(C)[C@H]3CC[C@]12C [Pregnenolone succinate] |  |  |  |  |  |  |  |  | 12 ± 4% | 6% | 12% | 8% | 13% | 17% | 15% | 34%
27 | CCOC(=O)[C@H](CCc1ccccc1)N[C@@H](C)C(=O)N1CCC[C@H]1C(=O)O [Enalapril maleate] | 4 ± 8% | -6% | 13% | 1% | 9% | 10% | -3% | 31% |  |  |  |  |  |  |  | 
28 | C[C@@H]1C[C@H]2[C@@H]3CCC4=CC(=O)C=C[C@]4(C)[C@@]3(F)[C@@H](O)C[C@]2(C)[C@H]1C(=O)CO [Desoxymetasone] |  |  |  |  |  |  |  |  | 39 ± 4% | 34% | 42% | 34% | 40% | 42% | 41% | 66%
29 | C[C@H]1O[C@H](O[C@H]2[C@H](O)[C@@H](O)[C@@H](O[C@H]3[C@H](O)[C@@H](O)C(O)O[C@@H]3CO)O[C@@H]2CO)[C@H](O)[C@@H](O)[C@@H]1N[C@H]1C=C(CO)[C@@H](O)[C@H](O)[C@H]1O (some centres unmarked) [Acarbose] |  |  |  |  |  |  |  | 47% |  |  |  |  |  |  |  | 
30 | O=C([O-])c1ccccc1-c1c2cc(Br)c(=O)cc-2oc2[c]([Hg+])c([O-])c(Br)cc12.[Na+].[Na+].[OH-] [Merbromin] |  |  |  |  |  |  |  |  |  |  |  |  |  |  |  | 47%
